Reference: patent publication US8053418B2, “Anti-penicillin resistant pneumococci agent and novel 16-membered macrolide derivative” (Microbial Chemistry Research Foundation, priority 2005, dated 2011)
In brackets after ≈: the same amount, converted by molar mass. Like-named read-outs stand apart in the source and are kept apart here.

What was measured:
Assay type in all cases: cell-based
[1] = tested on: Streptococcus pneumoniae IMC B-1232 (PRSP); assay: Antimicrobial activity test (MIC), clinical isolate IMC B-1232
Protocol: (§1) Using Streptococcus pneumoniae that include clinical isolates of PRSP, the antimicrobial activity of each of the prepared anti-PRSP agents was measured in accordance with the “determination method of minimum inhibitory concentration of drug against bacteria” of Japanese Society of Chemotherapy (for re-revised version, see Chemotherapy 29; 76, 1981).
(§2) 11 test strains of Streptococcus pneumoniae including IMC B-0919 are all clinical isolates, of which 2 strains, IMC B-0921 and IMC B-1229, are classified into penicillin susceptible Streptococcus pneumoniae (PSSP) and the remaining 9 strains are classified into penicillin-resistant Streptococcus pneumoniae (PRSP) (according to NCCLS standards).

[2] = tested on: Streptococcus pneumoniae IMC B-0922 (PRSP); assay: Antimicrobial activity test (MIC), clinical isolate IMC B-0922
Protocol: as §1, §2

[3] = tested on: Streptococcus pneumoniae IMC B-1231 (PRSP); assay: Antimicrobial activity test (MIC), clinical isolate IMC B-1231
Protocol: as §1, §2

[4] = tested on: Streptococcus pneumoniae IMC B-1234 (PRSP); assay: Antimicrobial activity test (MIC), clinical isolate IMC B-1234
Protocol: as §1, §2

[5] = tested on: Streptococcus pneumoniae IMC B-1235 (PRSP); assay: Antimicrobial activity test (MIC), clinical isolate IMC B-1235
Protocol: as §1, §2

[6] = tested on: Streptococcus pneumoniae IMC B-1229 (PSSP); assay: Antimicrobial activity test (MIC), clinical isolate IMC B-1229
Protocol: as §1, §2

[7] = tested on: Streptococcus pneumoniae IMC B-0919 (PRSP); assay: Antimicrobial activity test (MIC), clinical isolate IMC B-0919
Protocol: as §1, §2

[8] = tested on: Streptococcus pneumoniae IMC B-0921 (PSSP); assay: Antimicrobial activity test (MIC), clinical isolate IMC B-0921
Protocol: as §1, §2

[9] = tested on: Streptococcus pneumoniae IMC B-1233 (PRSP); assay: Antimicrobial activity test (MIC), clinical isolate IMC B-1233
Protocol: as §1, §2

[10] = tested on: Streptococcus pneumoniae IMC B-0920 (PRSP); assay: Antimicrobial activity test (MIC), clinical isolate IMC B-0920
Protocol: as §1, §2

[11] = tested on: Streptococcus pneumoniae IMC B-1236 (PRSP); assay: Antimicrobial activity test (MIC), clinical isolate IMC B-1236
Protocol: as §1, §2

[12] = Streptococcus pneumoniae IMC B-1232, PRSP
[13] = Streptococcus pneumoniae IMC B-0922, PRSP
[14] = Streptococcus pneumoniae IMC B-1231, PRSP
[15] = Streptococcus pneumoniae IMC B-1234, PRSP
[16] = Streptococcus pneumoniae IMC B-1235, PRSP
[17] = Streptococcus pneumoniae IMC B-1229, PSSP
[18] = Streptococcus pneumoniae IMC B-0919, PRSP
[19] = Streptococcus pneumoniae IMC B-0921, PSSP
[20] = Streptococcus pneumoniae IMC B-1233, PRSP
[21] = Streptococcus pneumoniae IMC B-0920, PRSP
[22] = Streptococcus pneumoniae IMC B-1236, PRSP
[23] = PRSP clinical isolate IMC B-1232
[24] = PRSP clinical isolate IMC B-0922
[25] = PRSP clinical isolate IMC B-1231
[26] = PRSP clinical isolate IMC B-1234
[27] = PRSP clinical isolate IMC B-1235
[28] = PSSP clinical isolate IMC B-1229
[29] = PRSP clinical isolate IMC B-0919
[30] = PSSP clinical isolate IMC B-0921
[31] = PRSP clinical isolate IMC B-1233
[32] = PRSP clinical isolate IMC B-0920
[33] = PRSP clinical isolate IMC B-1236

Row | Compound | MIC [1, 23] [µg/mL] | MIC [2, 24] [µg/mL] | MIC [3, 25] [µg/mL] | MIC [4, 26] [µg/mL] | MIC [5, 27] [µg/mL] | MIC [6, 28] [µg/mL] | MIC [7, 29] [µg/mL] | MIC [8, 30] [µg/mL] | MIC [9, 31] [µg/mL] | MIC [10, 32] [µg/mL] | MIC [11, 33] [µg/mL] | further results
1 | CCC1OC(=O)CCC(C)C(OC2OC(C)CC(N(C)C)C2O)C(CC=O)CC(C)C(=O)C=CC(C)=CC1CNC(=O)Cc1cccnc1 (centres unmarked) [MKT-3216] |  |  |  |  |  |  |  |  |  |  |  | MIC [1, 12]: 0.05 µg/mL (≈ 0.0731 µM); MIC [2, 13]: 0.10 µg/mL (≈ 0.146 µM); MIC [3, 14]: 6.25 µg/mL (≈ 9.14 µM); MIC [4, 15]: 0.05 µg/mL (≈ 0.0731 µM); MIC [5, 16]: 12.5 µg/mL (≈ 18.3 µM); MIC [6, 17]: 0.10 µg/mL (≈ 0.146 µM); MIC [7, 18]: 0.10 µg/mL (≈ 0.146 µM); MIC [8, 19]: 0.10 µg/mL (≈ 0.146 µM); MIC [9, 20]: 0.05 µg/mL (≈ 0.0731 µM); MIC [10, 21]: 0.10 µg/mL (≈ 0.146 µM); MIC [11, 22]: 12.5 µg/mL (≈ 18.3 µM)
2 | CCC1OC(=O)CCC(C)C(OC2OC(C)CC(N(C)C)C2O)C(CC=O)CC(C)C(=O)C=CC(C)=CC1CN=[N+]=[N-] (centres unmarked) [MKT-3004] | 0.2 (≈ 0.339 µM) | 0.1 (≈ 0.169 µM) | 25 (≈ 42.3 µM) | 0.2 (≈ 0.339 µM) | 50 (≈ 84.6 µM) | 0.1 (≈ 0.169 µM) | 0.2 (≈ 0.339 µM) | 0.1 (≈ 0.169 µM) | 0.2 (≈ 0.339 µM) | 0.1 (≈ 0.169 µM) | 50 (≈ 84.6 µM) | 
3 | CC=CC=CC(=O)OCC1C=C(C)C=CC(=O)C(C)CC(CC=O)C(OC2OC(C)CC(N(C)C)C2O)C(C)CCC(=O)OC1CC (centres unmarked) [MKT-2110] |  |  |  |  |  |  |  |  |  |  |  | MIC [1, 12]: 0.20 µg/mL (≈ 0.303 µM); MIC [2, 13]: 0.10 µg/mL (≈ 0.152 µM); MIC [3, 14]: 25 µg/mL (≈ 37.9 µM); MIC [4, 15]: 0.10 µg/mL (≈ 0.152 µM); MIC [5, 16]: 50 µg/mL (≈ 75.8 µM); MIC [6, 17]: 0.20 µg/mL (≈ 0.303 µM); MIC [7, 18]: 0.05 µg/mL (≈ 0.0758 µM); MIC [8, 19]: 0.10 µg/mL (≈ 0.152 µM); MIC [9, 20]: 0.10 µg/mL (≈ 0.152 µM); MIC [10, 21]: 0.20 µg/mL (≈ 0.303 µM); MIC [11, 22]: 12.5 µg/mL (≈ 18.9 µM)
4 | CC[C@H]1OC(=O)[C@H](C)[C@@H](O[C@H]2C[C@@](C)(OC)[C@@H](O)[C@H](C)O2)[C@H](C)[C@@H](O[C@@H]2O[C@H](C)C[C@H](N(C)C)[C@H]2O)[C@](C)(OC)C[C@@H](C)C(=O)[C@H](C)[C@@H](O)[C@]1(C)O [clarithromycin, reference compound] |  |  |  |  |  |  |  |  |  |  |  | MIC ([1]; Streptococcus pneumoniae IMC B-1232, PRSP, read-out: MIC): 0.39 µg/mL (≈ 0.521 µM); MIC ([2]; Streptococcus pneumoniae IMC B-0922, PRSP, read-out: MIC): 0.2 µg/mL (≈ 0.267 µM); MIC ([3]; Streptococcus pneumoniae IMC B-1231, PRSP, read-out: MIC): 25 µg/mL (≈ 33.4 µM); MIC ([4]; Streptococcus pneumoniae IMC B-1234, PRSP, read-out: MIC): 0.05 µg/mL (≈ 0.0668 µM); MIC ([5]; Streptococcus pneumoniae IMC B-1235, PRSP, read-out: MIC): > 100 µg/mL; MIC ([6]; Streptococcus pneumoniae IMC B-1229, PSSP, read-out: MIC): 0.1 µg/mL (≈ 0.134 µM); MIC ([7]; Streptococcus pneumoniae IMC B-0919, PRSP, read-out: MIC): 0.2 µg/mL (≈ 0.267 µM); MIC ([8]; Streptococcus pneumoniae IMC B-0921, PSSP, read-out: MIC): 0.1 µg/mL (≈ 0.134 µM); MIC ([9]; Streptococcus pneumoniae IMC B-1233, PRSP, read-out: MIC): 0.05 µg/mL (≈ 0.0668 µM); MIC ([10]; Streptococcus pneumoniae IMC B-0920, PRSP, read-out: MIC): 0.2 µg/mL (≈ 0.267 µM); MIC ([11]; Streptococcus pneumoniae IMC B-1236, PRSP, read-out: MIC): > 100 µg/mL
5 | CCC1OC(=O)CCC(C)C(OC2OC(C)CC(N(C)C)C2O)C(CC=O)CC(C)C(=O)C=CC(C)=CC1COC(=O)Cc1ccccc1 (centres unmarked) [MKT-2005] | 0.05 (≈ 0.0731 µM) | 0.1 (≈ 0.146 µM) | 0.78 (≈ 1.14 µM) | 0.1 (≈ 0.146 µM) | 1.56 (≈ 2.28 µM) | 0.1 (≈ 0.146 µM) | 0.2 (≈ 0.292 µM) | 0.05 (≈ 0.0731 µM) | <0.025 | 0.2 (≈ 0.292 µM) | 3.13 (≈ 4.58 µM) | 
6 | CCC1OC(=O)CCC(C)C(OC2OC(C)CC(N(C)C)C2O)C(CC=O)CC(C)C(=O)C=CC(C)=CC1CN (centres unmarked) [MKT-3005] | 0.2 (≈ 0.354 µM) | 0.39 (≈ 0.691 µM) | 50 (≈ 88.5 µM) | 0.2 (≈ 0.354 µM) | 100 (≈ 177 µM) | 0.2 (≈ 0.354 µM) | 0.78 (≈ 1.38 µM) | 0.1 (≈ 0.177 µM) | 0.05 (≈ 0.0885 µM) | 1.56 (≈ 2.76 µM) | 100 (≈ 177 µM) | 
7 | CCC1OC(=O)CCC(C)C(OC2OC(C)CC(N(C)C)C2O)C(CC=O)CC(C)C(=O)C=CC(C)=CC1CN(C)CCc1ccc(OC)c(OC)c1 (centres unmarked) [MKT-6104] | 1.56 (≈ 2.1 µM) | 0.78 (≈ 1.05 µM) | 50 (≈ 67.3 µM) | 1.56 (≈ 2.1 µM) | 25 (≈ 33.6 µM) | 1.56 (≈ 2.1 µM) | 1.56 (≈ 2.1 µM) | 0.78 (≈ 1.05 µM) | 1.56 (≈ 2.1 µM) | 0.78 (≈ 1.05 µM) | 25 (≈ 33.6 µM) | 
